Reference: patent US8546343B2, “Aminoglycoside antibiotics targeting bacterial 16S ribosomal RNA” (Eidgenoessische Technische Hochschule Zurich, priority 2007, dated 2013)

How the values were obtained:
Format in all cases: cell-based, Mycobacterium smegmatis
[1] = tested on: M. smegmatis ΔrrnB 1491A (16S rRNA position 1491 A, eukaryotic cytosolic ribosomes); assay: MIC, recombinant M. smegmatis with mutant ribosomes 1491A; conditions: M. smegmatis ΔrrnB 1491A mutant ribosomes; 72 h at 37° C.
Text: (§1) The strain used for introduction/selection of mutational alterations was a genetically modified derivative of Mycobacterium smegmatis carrying a single functional chromosomal rRNA operon (Sander et al. Mol. Microbiol. 1996, 22: 841-848). This strain, termed M. smegmatis rrn^−, allowed for the selection of mutational rRNA gene alterations using a plasmid carrying the rRNA gene with the respective mutational alteration.)
(§2) The rRNA gene carried on the plasmid encodes either the complete rRNA operon (Prammananan et al. Antimicrob. Agents Chemother. 1999, 43: 447-453) or a non-functional rRNA gene fragment of approximately 1.0 kb (Pfister et al. Antimicrob. Agents Chemother. 2003, 47: 1496-1502). PCR-mutagenesis in vitro was used to generate the mutagenized rRNA gene fragment. In the case of a partial rRNA gene fragment the mutagenized rRNA gene fragment was cloned into vectors pMV261 or pMV361 (Sander et al. Mol. Microbiol. 2002, 46: 1295-1304; Pfister et al. Antimicrob. Agents Chemother. 2003, 47: 1496-1502) to result in vectors carrying a partial rRNA gene fragment of approximately 1.0 kb with the mutational alteration introduced. In the case of plasmids carrying the complete rRNA operon the mutagenized rRNA gene fragment obtained by PCR was cloned into vectors pMV361 rRNA or pMV261 rRNA using appropriate restriction sites (Prammananan et al. Antimicrob. Agents Chemother. 1999, 43: 447-453). Vectors pMV361 rRNA and pMV261 rRNA carried a complete copy of the rRNA operon from M. smegmatis (Sander et al. Mol. Microbiol. 1997, 26: 469-480). Introduction of mutations into the plasmid encoded rRNA was confirmed by sequencing.
(§3) The single rRNA allelic derivative of M. smegmatis, i.e. M. smegmatis rrn, was used for transformation of the plasmids. The strain was made electro-competent and transformed according to standard techniques and as described previously (Sander et al. Mol. Microbiol. 1997, 26: 469-484). Following primary selection, the plasmid-encoded mutational rRNA gene alteration was transferred into the single chromosomal rRNA operon by means of RecA-mediated homologous recombination (Prammananan at al. Antimicrob. Agents Chemother. 1999, 43: 447-453). Introduction of the mutational rRNA gene alteration into the single functional chromosomal rRNA operon by gene conversion was confirmed by sequence determination.
(§4) Ribosomal drug susceptibility was studied by determining the minimal inhibitory concentrations, as described in detail in Pfister et al. 2003 and 2005 (see above).
(§5) The recombinants carrying the respective mutational alterations in the functional rRNA operon were colony-purified and subjected to determinations of minimal inhibitory concentrations (MIC) to determine ribosomal drug susceptibility. Cultures from single colonies were grown in LB medium supplemented with 0.05% Tween 80 and used for MIC tests in a microtiter plate format. Starting cultures contained 200 μl of bacterial cells at an optical density of 0.025 at 600 nm, and the respective drug was added in twofold series of dilution.
(§6) Key nucleotides which distinguish the prokaryotic from the eukaryotic decoding site are 16S rRNA positions 1408 (bacterial ribosome: A, eukaryotic cytosolic ribosomes: G) and 1491 (bacterial ribosomes: G, eukaryotic cytosolic ribosomes: A, eukaryotic mitochondrial ribosome: C).

[2] = tested on: M. smegmatis ΔrrnB 1491C (16S rRNA position 1491 C, eukaryotic mitochondrial ribosome); assay: MIC, recombinant M. smegmatis with mutant ribosomes 1491C; conditions: M. smegmatis ΔrrnB 1491C mutant ribosomes; 72 h at 37° C.
Text: as §1, §2, §3, §4, §5, §6

[3] = tested on: M. smegmatis ΔrrnB 1408G (16S rRNA position 1408 G, eukaryotic cytosolic ribosomes); assay: MIC, recombinant M. smegmatis with mutant ribosomes 1408G; conditions: M. smegmatis ΔrrnB 1408G mutant ribosomes; 72 h at 37° C.
Text: as §1, §2, §3, §4, §5, §6

[4] = tested on: M. smegmatis ΔrrnB (bacterial ribosomes); assay: MIC, recombinant M. smegmatis with bacterial (wild-type) ribosomes; conditions: 72 h at 37° C.
Text: as §1, §2, §3, §4, §5, §6

COc1ccc([C@@H]2OC[C@H]3O[C@H](O[C@H]4[C@H](O[C@@H]5O[C@H](CO)[C@@H](O[C@H]6O[C@@H](CN)[C@@H](O)[C@H](O)[C@H]6N)[C@H]5O)[C@@H](O)[C@H](N)C[C@@H]4N)[C@H](N)[C@@H](O)[C@@H]3O2)cc1 [Compound 5.2, 4′,6′-O-p-Methoxybenzylideneparomomycin]
minimal inhibitory concentrations ΔrrnB 1491A [1]: >512 µg/mL
minimal inhibitory concentrations ΔrrnB 1491C [2]: >512 µg/mL
minimal inhibitory concentrations ΔrrnB 1408G [3]: >512 µg/mL
minimal inhibitory concentrations ΔrrnB [4]: 4 µg/mL

CC(=O)O.CC(=O)O.CC(=O)O.CC(=O)O.COc1cccc(C2OCC3OC(OC4C(N)CC(N)C(O)C4OC4OC(CO)C(OC5OC(CN)C(O)C(O)C5N)C4O)C(N)C(O)C3O2)c1 (stereo not shown) [Compound 5.3, 4′,6′-O-m-Methoxybenzylideneparomomycin tetraacetate]
minimal inhibitory concentrations ΔrrnB 1491A [1]: 512 µg/mL
minimal inhibitory concentrations ΔrrnB 1491C [2]: >512 µg/mL
minimal inhibitory concentrations ΔrrnB 1408G [3]: 256 to 512 µg/mL
minimal inhibitory concentrations ΔrrnB [4]: 4 to 8 µg/mL

COc1ccccc1[C@@H]1OC[C@H]2O[C@H](O[C@H]3[C@H](O[C@@H]4O[C@H](CO)[C@@H](O[C@H]5O[C@@H](CN)[C@@H](O)[C@H](O)[C@H]5N)[C@H]4O)[C@@H](O)[C@H](N)C[C@@H]3N)[C@H](N)[C@@H](O)[C@@H]2O1 [Compound 5.4, 4,6′-O-o-Methoxybenzylideneparomomycin]
minimal inhibitory concentrations ΔrrnB 1491A [1]: >512 µg/mL
minimal inhibitory concentrations ΔrrnB 1491C [2]: >512 µg/mL
minimal inhibitory concentrations ΔrrnB 1408G [3]: >512 µg/mL
minimal inhibitory concentrations ΔrrnB [4]: 8 to 16 µg/mL

COc1ccc(OC)c(C2OC[C@H]3O[C@H](O[C@H]4[C@H](O[C@@H]5O[C@H](CO)[C@@H](O[C@H]6O[C@@H](CN)[C@@H](O)[C@H](O)[C@H]6N)[C@H]5O)[C@@H](O)[C@H](N)C[C@@H]4N)[C@H](N)[C@@H](O)[C@@H]3O2)c1 (stereo partly shown) [Compound 5.5, 4′,6′-O-2,5-Dimethoxybenzylideneparomomycin]
minimal inhibitory concentrations ΔrrnB 1491A [1]: >512 µg/mL
minimal inhibitory concentrations ΔrrnB 1491C [2]: >512 µg/mL
minimal inhibitory concentrations ΔrrnB 1408G [3]: ≧512 μg/ml
minimal inhibitory concentrations ΔrrnB [4]: 4 to 8 µg/mL

NC[C@@H]1O[C@H](O[C@H]2[C@@H](O)[C@H](O[C@@H]3[C@@H](O)[C@H](N)C[C@H](N)[C@H]3O[C@H]3O[C@@H]4CO[C@@H](c5ccc([N+](=O)[O-])cc5)O[C@H]4[C@H](O)[C@H]3N)O[C@@H]2CO)[C@H](N)[C@@H](O)[C@@H]1O [Compound 5.6, 4′,6′-O-p-Nitrobenzylideneparomomycin]
minimal inhibitory concentrations ΔrrnB 1491A [1]: >512 µg/mL
minimal inhibitory concentrations ΔrrnB 1491C [2]: >512 µg/mL
minimal inhibitory concentrations ΔrrnB 1408G [3]: 512 µg/mL
minimal inhibitory concentrations ΔrrnB [4]: 4 µg/mL

CC(=O)O.CC(=O)O.CC(=O)O.NC[C@@H]1O[C@H](O[C@H]2[C@@H](O)[C@H](O[C@@H]3[C@@H](O)[C@H](N)C[C@H](N)[C@H]3O[C@H]3O[C@@H]4COC(c5cccc([N+](=O)[O-])c5)O[C@H]4[C@H](O)[C@H]3N)O[C@@H]2CO)[C@H](N)[C@@H](O)[C@@H]1O (stereo partly shown) [Compound 5.7, 4,6′-O-m-Nitrobenzylideneparomomycin triacetate]
minimal inhibitory concentrations ΔrrnB 1491A [1]: 256 µg/mL
minimal inhibitory concentrations ΔrrnB 1491C [2]: >512 µg/mL
minimal inhibitory concentrations ΔrrnB 1408G [3]: 256 to 512 µg/mL
minimal inhibitory concentrations ΔrrnB [4]: 2 to 4 µg/mL

NC[C@@H]1O[C@H](O[C@H]2[C@@H](O)[C@H](O[C@@H]3[C@@H](O)[C@H](N)C[C@H](N)[C@H]3O[C@H]3O[C@@H]4CO[C@@H](c5cc(Cl)cc(Cl)c5)O[C@H]4[C@H](O)[C@H]3N)O[C@@H]2CO)[C@H](N)[C@@H](O)[C@@H]1O [Compound 5.9, 4,6′-O-3,5-Dichlorobenzylideneparomomycin]
minimal inhibitory concentrations ΔrrnB 1491A [1]: 128 to 256 µg/mL
minimal inhibitory concentrations ΔrrnB 1491C [2]: 128 µg/mL
minimal inhibitory concentrations ΔrrnB 1408G [3]: 128 to 256 µg/mL
minimal inhibitory concentrations ΔrrnB [4]: 4 µg/mL

N#Cc1ccc([C@@H]2OC[C@H]3O[C@H](O[C@H]4[C@H](O[C@@H]5O[C@H](CO)[C@@H](O[C@H]6O[C@@H](CN)[C@@H](O)[C@H](O)[C@H]6N)[C@H]5O)[C@@H](O)[C@H](N)C[C@@H]4N)[C@H](N)[C@@H](O)[C@@H]3O2)cc1 [Compound 5.10, 4,6′-O-p-Cyanobenzylideneparomomycin]
minimal inhibitory concentrations ΔrrnB 1491A [1]: >512 µg/mL
minimal inhibitory concentrations ΔrrnB 1491C [2]: >512 µg/mL
minimal inhibitory concentrations ΔrrnB 1408G [3]: >512 µg/mL
minimal inhibitory concentrations ΔrrnB [4]: 16 to 32 µg/mL

NC[C@@H]1O[C@H](O[C@H]2[C@@H](O)[C@H](O[C@@H]3[C@@H](O)[C@H](N)C[C@H](N)[C@H]3O[C@H]3O[C@@H]4CO[C@@H](c5ccc(-c6ccccc6)cc5)O[C@H]4[C@H](O)[C@H]3N)O[C@@H]2CO)[C@H](N)[C@@H](O)[C@@H]1O [Compound 5.11, 4′,6′-O-p-Phenylbenzylideneparomomycin]
minimal inhibitory concentrations ΔrrnB 1491A [1]: 64 to 128 µg/mL
minimal inhibitory concentrations ΔrrnB 1491C [2]: 64 µg/mL
minimal inhibitory concentrations ΔrrnB 1408G [3]: 128 µg/mL
minimal inhibitory concentrations ΔrrnB [4]: 64 µg/mL

NC[C@@H]1O[C@H](O[C@H]2[C@@H](O)[C@H](O[C@@H]3[C@@H](O)[C@H](N)C[C@H](N)[C@H]3O[C@H]3O[C@@H]4CO[C@@H](c5ccc(F)cc5)O[C@H]4[C@H](O)[C@H]3N)O[C@@H]2CO)[C@H](N)[C@@H](O)[C@@H]1O [Compound 5.12, 4,6′-O-p-Fluorobenzylideneparomomycin]
minimal inhibitory concentrations ΔrrnB 1491A [1]: >512 µg/mL
minimal inhibitory concentrations ΔrrnB 1491C [2]: >512 µg/mL
minimal inhibitory concentrations ΔrrnB 1408G [3]: >512 µg/mL
minimal inhibitory concentrations ΔrrnB [4]: 2 to 4 µg/mL

COc1cc(OC)cc([C@@H]2OC[C@H]3O[C@H](O[C@H]4[C@H](O[C@@H]5O[C@H](CO)[C@@H](O[C@H]6O[C@@H](CN)[C@@H](O)[C@H](O)[C@H]6N)[C@H]5O)[C@@H](O)[C@H](N)C[C@@H]4N)[C@H](N)[C@@H](O)[C@@H]3O2)c1 [Compound 5.13, 4′,6′-O-3,5-Dimethoxybenzylideneparomomycin]
minimal inhibitory concentrations ΔrrnB 1491A [1]: >512 µg/mL
minimal inhibitory concentrations ΔrrnB 1491C [2]: >512 µg/mL
minimal inhibitory concentrations ΔrrnB 1408G [3]: >512 µg/mL
minimal inhibitory concentrations ΔrrnB [4]: 32 µg/mL

COc1cc([C@@H]2OC[C@H]3O[C@H](O[C@H]4[C@H](O[C@@H]5O[C@H](CO)[C@@H](O[C@H]6O[C@@H](CN)[C@@H](O)[C@H](O)[C@H]6N)[C@H]5O)[C@@H](O)[C@H](N)C[C@@H]4N)[C@H](N)[C@@H](O)[C@@H]3O2)cc(OC)c1OC [Compound 5.14, 4′,6′-O-3,4,5-Trimethoxybenzylideneparomomycin]
minimal inhibitory concentrations ΔrrnB 1491A [1]: >512 µg/mL
minimal inhibitory concentrations ΔrrnB 1491C [2]: >512 µg/mL
minimal inhibitory concentrations ΔrrnB 1408G [3]: >512 µg/mL
minimal inhibitory concentrations ΔrrnB [4]: 32 to 64 µg/mL

NC[C@@H]1O[C@H](O[C@H]2[C@@H](O)[C@H](O[C@@H]3[C@@H](O)[C@H](N)C[C@H](N)[C@H]3O[C@H]3O[C@@H]4CO[C@@H](c5cccc(Cl)c5)O[C@H]4[C@H](O)[C@H]3N)O[C@@H]2CO)[C@H](N)[C@@H](O)[C@@H]1O [Compound 5.15, 4′,6′-O-m-chlorobenzylideneparomomycin]
minimal inhibitory concentrations ΔrrnB 1491A [1]: 512 µg/mL
minimal inhibitory concentrations ΔrrnB 1491C [2]: 512 µg/mL
minimal inhibitory concentrations ΔrrnB 1408G [3]: 256 to 512 µg/mL
minimal inhibitory concentrations ΔrrnB [4]: 2 to 4 µg/mL
